Each structure is given as a SMILES string. Activity calls are given as the source filed them.

Data set [1] is filed under the species Homo sapiens. Put plainly: Selectivity ratio of IC50 for inhibition of His6-tagged human CREBBP (R1081 to G1197 residues) expressed in Escherichia coli BL21(DE3) by AlphaScreen assay to IC50 for inhibition of His6-tagged human BRD4 bromodomain-1 (N44 to E168 residues) expressed in Escherichia coli BL21(DE3) by AlphaScreen assay. In general terms: Bead proximity is the source of the signal in Alpha formats.

A further data set concerns LNCaP C4-2B. Put plainly: Inhibition of colony formation in human C4-2B cells after 14 days by crystal violet staining based assay. The format is functional, cell-based.
Data set [2] is filed under the species Homo sapiens. Put plainly: Inhibition of BET bromodomain in human 22Rv1 cells assessed as reduction in c-Myc mRNA level at 1 uM after 48 hrs by qPCR assay. The format is cell-based. A general note: Real-time PCR tracks product formation cycle by cycle.
For data set [3], the species on record is Homo sapiens. The experiment in a line: Inhibition of BET bromodomain in human LNCAP cells assessed as reduction in PSA mRNA level at 1 uM after 48 hrs by qPCR assay. Format: cell-based.
For data set [4], the species on record is Homo sapiens. The experiment in a line: Inhibition of BET bromodomain in human LNCAP cells assessed as reduction in full length AR mRNA level at 1 uM after 48 hrs by qPCR assay. Format: cell-based.
Data set [5] relates to VCaP. Put plainly: Inhibition of BET bromodomain in human VCaP cells assessed as reduction in full length AR mRNA level at 1 uM after 48 hrs by qPCR assay. Format: cell-based.
The species named for data set [6] is Homo sapiens. Put plainly: Inhibition of BET bromodomain in human 22Rv1 cells assessed as reduction in TMPRSS2 mRNA level at 1 uM after 48 hrs by qPCR assay. The format is cell-based.
In data set [7] the test system is VCaP. Put plainly: Inhibition of BET bromodomain in human VCaP cells assessed as reduction in ERG mRNA level at 1 uM after 48 hrs by qPCR assay. Format: cell-based.
The species entered for data set [8] is Homo sapiens. Put plainly: Inhibition of BET bromodomain in human 22Rv1 cells assessed as reduction in ERG mRNA level at 1 uM after 48 hrs by qPCR assay. The format is cell-based.
For data set [9], the species on record is Homo sapiens. Put plainly: Inhibition of BET bromodomain in human LNCAP cells harboring pPSA-Luc/pRenialla-Luc assessed as reduction in PSA mRNA level after 24 hrs by luciferase reporter gene assay. The format is cell-based. On the technique in general: Reporter assays use an easily measured gene product as a stand-in for the process of interest.
The species named for data set [10] is Homo sapiens. Put plainly: Inhibition of BET bromodomain in human 22Rv1 cells assessed as full length AR protein level at 1 uM after 48 hrs by Western blot assay (reference value: 1). Format: cell-based.
The species named for data set [11] is Homo sapiens. Put plainly: Inhibition of BET bromodomain in human 22Rv1 cells assessed as full length AR protein level at 16 uM after 48 hrs by Western blot assay (reference value: 1). The format is cell-based.
The species named for data set [12] is Homo sapiens. The experiment in a line: Inhibition of BET bromodomain in human 22Rv1 cells assessed as AR-varient protein level at 16 uM after 48 hrs by Western blot assay (reference value: 1). Format: cell-based.
Data set [13] concerns CWR22R. Put plainly: Antimigratory activity against human 22Rv1 cells at 1 uM after 48 hrs by transwell assay relative to control. Format: functional.
Data set [14] has as its system CWR22R. Put plainly: Anti-invasive activity against human 22Rv1 cells at 1 uM after 48 hrs by crystal violet staining based matrigel-mediated Boyden chamber assay relative to control. The format is functional.
Data set [15] in a line: Cmax in Sprague-Dawley rat at 2 mg/kg, iv administered as single dose. Further details: dose 2 mg/kg, route intravenous. The format is ADME, organism-based. The settings on record: in vivo.
The nature of data set [16]: Cmax in Sprague-Dawley rat at 10 mg/kg, po administered as single dose. More on the design: dose 10 mg/kg, route oral. As to conditions: in vivo. Format: ADME, organism-based.
Data set [17] can be described thus: Tmax in Sprague-Dawley rat at 2 mg/kg, iv administered as single dose. The settings on record: in vivo. The format is ADME, organism-based.
A short description of data set [18]: Tmax in Sprague-Dawley rat at 10 mg/kg, po administered as single dose. The format is ADME, organism-based. As to conditions: in vivo.
The nature of data set [19]: AUC (0 to infinity) in Sprague-Dawley rat at 10 mg/kg, po administered as single dose. Further details: dose 10 mg/kg, route oral, time infinity. The settings on record: in vivo. The format is ADME, organism-based.
A short description of data set [20]: Half life in Sprague-Dawley rat at 2 mg/kg, iv administered as single dose. Format: ADME, organism-based. The settings on record: in vivo.
The nature of data set [21]: Clearance in Sprague-Dawley rat at 2 mg/kg, iv administered as single dose. As to conditions: in vivo. Format: ADME, organism-based.
The next data set has as its system LNCaP. The experiment in a line: Antiproliferative activity against human LNCAP cells. The format is functional, cell-based.

On to `Cc1noc(C)c1-c1ccc2c(c1)O[C@H](CC1CC1)C(=O)N2`, for which the Ratio IC50 in the data set listed under Homo sapiens [1] came to 25. Besides, the inhibition result in the data set with LNCaP C4-2B and in the data set listed under Homo sapiens [9] was “Dose-dependent effect” each time. For the same compound, the inhibition result in the data set filed under Homo sapiens [2], in the data set listed under Homo sapiens [3], in the data set listed under Homo sapiens [4], with VCaP [5], in the data set filed under Homo sapiens [6] and in the data set on VCaP [7] was “Active” in each case. Further, the inhibition result in the data set listed under Homo sapiens [8] was “Active”. Also, the fold change (FC) in the data set filed under Homo sapiens [10] came out at 0.43; in the data set listed under Homo sapiens [11] it was 0.09; in the data set listed under Homo sapiens [12] it was 0.06. Moreover, the Activity with CWR22R [13] is 27%; in the data set with CWR22R [14] it was 57%. For the same compound, the maximum concentration (Cmax) in data set [15] is 1.35 µg/mL; in data set [16], 0.83 µg/mL. In addition, the Tmax in [17] is 4.8 min; in data set [18] it was 30 min. In data set [19], this compound yielded an AUC(0-inf) of 1.46 µg·h/mL. In data set [20], the half-life is 48 min. Also, the clearance in data set [21] worked out at 2.03 L/h/kg.

`Cc1sc2c(c1C)C(c1ccc(Cl)cc1)=N[C@@H](CC(=O)OC(C)(C)C)c1nnc(C)n1-2` registered an IC50 with LNCaP of 0.11 µM.

As a reminder, the Cmax is the maximum level reached in the sampled fluid or tissue. One may read the Tmax as the time from dosing to the highest level. The AUC(0-inf) is the area under the concentration-time curve extrapolated to infinity. The low end stands for low exposure, the high end for high exposure. By half-life is commonly meant the time needed for the level to fall by half in the phase considered. A higher half-life goes with slow loss. Usually clearance stands for the volume of plasma or blood freed of the substance per unit of time. Broadly, the IC50 is the concentration that gives 50% inhibition.

These data come from ChEMBL document CHEMBL4152259, “Benzoxazinone-containing 3,5-dimethylisoxazole derivatives as BET bromodomain inhibitors for treatment of castration-resistant prostate cancer” (Eur J Med Chem, 2018).
